Assays:
ACC levels in shoots = experiment: Quantification of ACC in shoots by CE-MS; type: in vivo, Arabidopsis thaliana
Experimental: To find out whether differential transcripts reflect changes in hormone levels, we determined concentrations of the ethylene precursor ACC in complete shoots of 9-day-old plants transferred to mannitol. Already 1 h after stress onset, ACC levels were 30% higher in stressed than in control samples, although this was not significant, and by 10 h, the increase was more than 2-fold and significant (FIG. 7B). At the time of analysis, the shoot samples were mainly composed of expanding cells, reflecting the overall importance of ethylene signaling for the response of growing tissues to stress.
Freeze-dried samples were dissolved in 500 μl of methanol, including two internal standard compounds (4 μM methionine sulfone used for compensation of the peak area after capillary electrophoresis-mass spectrometry (CE-MS) analysis and 0.2 μM D4-ACC for quantification of ACC. After addition of 500 μl of chloroform and 200 μl of water, the mixture was vortexed for 3 min and centrifuged at 20,400 g for 3 min at 4° C. The upper layer was evaporated for 30 min at 45° C. by a centrifugal concentrator and then separated into two layers. The upper layer (100-200 μl) was centrifugally filtered through a Millipore 5-kD cutoff filter at 9,100 g for 90 min. […] The final solution (10 μL) was used to quantify the contents of ACC by cation analysis using CE-MS. […]

CDKA = CDKA activity assay on protein extracted from proliferating third leaves; type: in vivo, Arabidopsis thaliana; conditions: wild type; 10 and 24 h after transfer to 25 mM mannitol or 5 μM ACC
Experimental: At 9 DAS, when the third leaf is fully proliferating, seedlings were transferred to plates containing control medium or medium supplemented with 25 mM mannitol (Sigma-Aldrich) or 5 μM ACC (Sigma-Aldrich) by gently lifting the nylon mesh with forceps. For the CDKA activity assay the transfer was done at 11 DAS; at this stage, the third leaf is still dividing and can be quickly harvested without the need for RNAlater solution (see below) that would inhibit CDKA activity. All transfers were performed 2-3 h into the day.
Total soluble protein was extracted from 50 leaves by adding extraction buffer (Van Leene et al., 2007) to ground samples, followed by two freeze-thaw steps and two centrifugation steps (20,817 g, 10 min, 4° C.), whereby the supernatant was collected each time. Equal amounts of total protein were incubated with p9^CKS1Hs-sepharose beads (De Veylder et al., 1997) and kinase assays were performed as described (De Veylder et al., 1997) with histone H1 as CDK substrate. To correct for the amount of CDKA protein purified by p9^CKS1Hs-sepharose beads, an aliquot of each sample was used for protein gel blot analysis with primary rabbit anti-PSTAIRE antibodies (Santa Cruz) (diluted 1:5000) and a secondary horseradish peroxidase-conjugated donkey anti-rabbit antibodies (GE-Healthcare) (diluted 1:10,000). Proteins were detected by chemiluminescence (Western Lightning Plus ECL, PerkinElmer Life Sciences). CDK activity and CDKA amount were quantified with ImageJ v1.41o. Control samples were arbitrarily set at 100%.

[1] = test system: Arabidopsis thaliana leaf 3; experiment: Leaf 3 area of ACC deaminase transgenic lines and wild type after 48 hours on mild mannitol stress; type: in vivo; conditions: wild type of the pGRF5::bACD experiment; 48 hours on 25 mM mannitol
From the text: In this experiment we aimed for a downregulation of the ethylene signaling pathway only in proliferating leaf cells (chimeric genes with 2 different meristematic promoters: p4TM1 and pGR5) as compared to a downregulation of the ethylene signaling in the entire plant (chimeric gene with the […] promoter). The transgene which was used for downregulation of the ethylene signaling was the ACC deaminase (a bacterial form and a plant form), an enzyme that degrades the ethylene precursor ACC. […]
Plant were transferred to plates containing 25 mM mannitol, hereby exposing them to mild mannitol stress, at a stage where the third leaf is fully proliferating, allowing to study the response of proliferating leaf cells to stress. After 48 hours on mild mannitol stress, leaf 3 was microdissected and its size was measured to calculate the extent of growth inhibition. […]
The plant growth and stress set-up was the same as previously described (Skirycz et al (2011) Plant Cell 23: 1876-1888). […] Slides were photographed, and leaf area was measured using ImageJ 1.41o.

For OC[C@@H](O)[C@@H](O)[C@H](O)[C@H](O)CO [mannitol], the “increase of ACC levels in stressed versus control shoots” value (ACC levels in shoots; 1 h after stress onset, not significant) was 30%, the “increase of ACC levels in stressed versus control shoots” value (ACC levels in shoots; 10 h after stress onset, significant) was “more than 2 fold” and the CDKA activity (CDKA) was “decreased as early as 10 h after stress onset and remained low at 24 h”. For the same compound, the “growth inhibition of leaf 3 area” value [1] was “about 10%”.

Source: US20140130208A1, “METHODS AND MEANS TO PRODUCE ABIOTIC STRESS TOLERANT PLANTS” (VIB VZW, priority 2011, published 2014)
